{
  "source": "patent US20040009904A1",
  "about": "“APL immunoreactive peptides, conjugates thereof and methods of treatment for aPL antibody-mediated pathologies” (priority 1995, published 2004)",
  "key": {"ACA-6501 aPL antibody": {"target": "ACA-6501 aPL antibody", "experiment": "Competitive binding peptide-ELISA, plates coated with tetravalent peptide ACA-6501/3B10", "set-up": "species or system human", "details": "monomeric peptide, ACA-6501 serum", "description": "Once ELISA-positive peptides are identified, it is necessary to quantitate their relative binding affinity to the aPL antibodies and to determine whether or not two peptides bind the same population of antibodies in a given patient serum via a peptide-competition ELISA assay. In this assay, various monomeric peptides compete with tetravalent peptides coated on a microtitration plate well. To perform the assay, the peptides to be evaluated are synthesized as monomers, ie., without the lysine branches employed in the synthesis of the tetravalent peptides, using standard Fmoc chemistry. The monomeric peptides are then purified and dissolved at known concentrations. Wells of a microtitration plate are coated with a tetravalent peptide known to bind to the aPL antibody. Serial dilutions of the monomeric peptides are incubated with a constant dilution of the aPL antibody. The dilution of the aPL antibody was previously determined by titering the antibody against the tetravalent peptide and selecting a dilution on the downslope of the titration curve. After incubating the antibody and monomeric peptides for one hour, the antibody/peptide solutions are added to the microtitration wells and a standard […] ELISA is performed. The concentration of each monomeric peptide that decreases binding of the aPL antibody with the tetravalent peptide is determined by plotting the calorimetric readings obtained for each well. The 50% inhibition point is used as the measure of the relative strength of binding for the monomeric peptides.\n(A) Each well of an Immulon II plate (Dynatech Laboratories, Inc., Chantilly Va.) was coated with 100 μL of a solution containing 10 μg tetravalent peptide ACA 6501/3B10 in 50 mM sodium carbonate, pH 9.5, containing 35 mM sodium bicarbonate (Fisher Scientific, Pittsburgh, Pa., reagent grade) for at least 1 hour at RT, except for three wells used as blank controls. […]"}, "ACA-6501 [1]": {"system": "ACA-6501", "experiment": "Phage-ELISA", "format": "binding, human", "details": "phage clones coated on wells, affACA-6501 2.5 μg/mL", "procedure": "This method of selecting phage requires very tight binding of the insert to the screening antibody. Phage are directly coated onto wells of a microtitration plate and incubated with the screening antibody. Following washes to remove unbound antibody, an anti-human IgG alkaline phosphatase conjugate is added to bind any aPL antibodies bound to the phage. APL antibodies are then detected by adding a calorimetric substrate to the well which will react with alkaline phosphatase according to methods well known in the art.\nThree mL cultures were prepared from 35 clones previously isolated with affinity purified ACA-6501 in several phage library screens as well as one fUSE 2 phage clone lacking a peptide insert which was used as a control. After centrifugation for 3 minutes at 17,000×g, 100 μL from each phage supernatant (adjusted to −2×10^11 particles/mL, based on absorbance) was added to microtitration plate wells (Falcon, Becton-Dickinson Labware, Lincoln Park, N.Y.) and allowed to incubate overnight at 4° C. Following four washes with TBS 7.4, the plate was blocked with 125 μL of 0.5% BSA/TBS for 1 hour at RT. After another four TBS washes, 100 μL of affACA-6501 previously diluted to 2.5 μg/mL in TBS/BSA was added to each well and allowed to incubate 1 hour at 37° C. Following an additional four washes, 100 μL anti-human IgG diluted 1:1000 in TBS/0.5% Tween was added to each well. After 1 hour at RT, enzyme substrate was added and the incubation allowed to proceed for 2 hours. Following the addition of 50 μL 0.2 M Na2HPO4 to stop the reaction, absorbance was measured at 550 nm in the automated plate absorbance reader. […] The sequences for these clones are showvn in Table 2."}, "ACA-6501 [2]": {"system": "ACA-6501", "experiment": "Competitive binding peptide ACA ELISA, cardiolipin/β2-GPI-coated plates", "set-up": "species or system human", "details": "peptide 200 μg/mL, affinity purified antibody", "in_short": "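Monomeric peptides at several amounts were preincubated ~1 h at RT with ACA-6501 serum (final 1:400), then added to cardiolipin-coated, fish-gelatin-blocked plates with β2-GPI for 1 h at RT. Bound IgG was detected with alkaline phosphatase anti-human IgG and phenolphthalein monophosphate, read at 550 nm. IC50 was the peptide amount at half-maximal absorbance.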"}, "ACA antibodies": {"system": "ACA antibodies", "experiment": "Competitive binding peptide ACA ELISA, cardiolipin/β2-GPI-coated plates, panel of ACA antibodies (average)", "set-up": "species or system human", "details": "peptide 200 μg/mL, average over nine antibodies", "procedure": "(§1) A variation of this assay uses microtitration plates coated with human β2-glycoprotein I/cardiolipin (β2-GPI/CL) instead of tetravalent peptide and tests the ability of monomeric peptides to block the binding of aPL antibody to the epitope(s) on β2-GPI/CL. In this assay, IgG-depleted human serum at an optimized concentration is used as a source of β2-GPI. The monomeric peptides at several concentrations are incubated with an optimized concentration of aPL antibody in a manner analogous to the assay which employs tetravalent peptide as a plate substrate. Following the incubation of aPL/peptide in (β2-GPI/CL) plates, antibody binding and the peptide concentration required for 50% inhibition is determined at half-maximal absorbance as in the tetravalent assay.\n(§2) Peptide sequences for all five peptides immediately follow the table. All were tested using the competitive binding peptide ACA ELISA using CL/β2-GPI plates as described herein.\nAs noted in Section I above, one synthetic peptide, 6641/3G3 was tested against several high titer ACA antisera. This peptide appeared to be crossreactive with the vast majority of ACA antisera tested as illustrated in FIG. 14.\n(§3) (B) Immulon I® 96-well, flat-bottom, polystyrene microtitration plates (Dynatech Laboratories, Inc., Chantilly, Va.) were coated with 30 μL/well of cardiolipin (CL, 50 μg; Sigma Chemical Co., St. Louis, Mo.) in ethanol. Two control wells received 30 μL ethanol only. After overnight evaporation at 4° C., each well was blocked with 200 μL of 5% (w/v) fish gelatin in PBS for 2 hours at RT.\n(§4) The CL/β2-GPI microtitration plate was washed 5 times with TBS and 100 μL aliquots in duplicate from Eppendorf tubes #1, 2, 3, and 4 containing the antibody-peptide (or no peptide mixtures) were added to the wells. A volume of 100 μL from tube #4 was added to the duplicate control wells containing no cardiolipin. The microtitration plate was incubated for 1 hour at RT with agitation at 40 rpm in an orbital shaker (American Scientific, Rotator V), washed 5 times with TBS and then 100 μL of 1:1000 goat anti-human IgG alkaline phosphatase conjugate (Zymed, Cat No. 62-8422) in 0.5% (w/v) BSA-TBS was added. Following incubation for 1 hour at RT, the microtitration plate was again washed 5 times with TBS and the colorimetric enzyme detection developed by adding 100 μL of PMPP solution (7.8 g phenolphthalein monophosphate plus 69.5 g of 2-amino-2-methyl-1-propanol in 100 mL water stock solution diluted 1:26 with water). After 21 minutes, the reaction was stopped by adding 50 μL of 0.2 M Na2HPO4 (Mallinckrodt) to each well. Absorbance at 550 nm was read in a microplate reader (Bio-Tek Instruments, Model EL 311). The amount of peptide that inhibited ACA-6501 binding by 50%, the IC50, was calculated from the graph at the intersection of half-maximal absorbance with amount of peptide added."}, "ACA-6638": {"system": "ACA-6638", "experiment": "Competitive binding peptide ACA ELISA, cardiolipin/β2-GPI-coated plates", "set-up": "species or system human", "details": "peptide 200 μg/mL, affinity purified antibody", "procedure": "as §1, §2, §3, §4"}, "ACA-6641": {"system": "ACA-6641", "experiment": "Competitive binding peptide ACA ELISA, cardiolipin/β2-GPI-coated plates", "set-up": "species or system human", "details": "peptide 200 μg/mL, affinity purified antibody", "procedure": "as §1, §2, §3, §4"}, "ACA-6644": {"system": "ACA-6644", "experiment": "Competitive binding peptide ACA ELISA, cardiolipin/β2-GPI-coated plates", "set-up": "species or system human", "details": "peptide 200 μg/mL, affinity purified antibody", "procedure": "as §1, §2, §3, §4"}, "ACA-7004": {"system": "ACA-7004", "experiment": "Competitive binding peptide ACA ELISA, cardiolipin/β2-GPI-coated plates", "set-up": "species or system human", "details": "peptide 200 μg/mL, affinity purified antibody", "procedure": "as §1, §2, §3, §4"}, "ACA-7005": {"system": "ACA-7005", "experiment": "Competitive binding peptide ACA ELISA, cardiolipin/β2-GPI-coated plates", "set-up": "species or system human", "details": "peptide 200 μg/mL, affinity purified antibody", "procedure": "as §1, §2, §3, §4"}, "ACA-6701": {"system": "ACA-6701", "experiment": "Competitive binding peptide ACA ELISA, cardiolipin/β2-GPI-coated plates", "set-up": "species or system human", "details": "peptide 200 μg/mL, affinity purified antibody", "procedure": "as §1, §2, §3, §4"}, "ACA-6626": {"system": "ACA-6626", "experiment": "Competitive binding peptide ACA ELISA, cardiolipin/β2-GPI-coated plates", "set-up": "species or system human", "details": "peptide 200 μg/mL, affinity purified antibody", "procedure": "as §1, §2, §3, §4"}, "ACA-6903": {"system": "ACA-6903", "experiment": "Competitive binding peptide ACA ELISA, cardiolipin/β2-GPI-coated plates", "set-up": "species or system human", "details": "peptide 200 μg/mL, affinity purified antibody", "procedure": "as §1, §2, §3, §4"}},
  "note": "Bridge positions count the residues as written; N and C are the ends. Peptide text beside a SMILES is read from it.",
  "data": [
    {"compound": "CC(C)C[C@@H]1NC(=O)[C@H](CC(C)C)NC(=O)[C@H](CC(C)C)NC(=O)[C@@H](NC(=O)[C@@H]2CCCN2)CSSC[C@@H](C(=O)N2CCC[C@H]2C(=O)NCC(=O)O)NC(=O)[C@H](CCCNC(=N)N)NC(=O)[C@H](CC(=O)O)NC(=O)[C@@H]2CCCN2C(=O)[C@H](C)NC1=O", "note": "[peptide 139] (H-PCLLLAPDRCPG-OH; disulfide 2-10)", "values": [
      {"measurement": "amount of peptide producing 50% inhibition of binding of ACA-6501 aPL antibody to tetravalent peptide ACA-6501/3B10", "setting": "ACA-6501 aPL antibody", "value": 6.9, "unit": "µg"}
    ]},
    {"compound": "CC(C)C[C@@H]1NC(=O)[C@H](CC(C)C)NC(=O)[C@H](CC(C)C)NC(=O)[C@@H](NC(=O)[C@@H]2CCCN2C(=O)CN)CSSC[C@@H](C(=O)N2CCC[C@H]2C(=O)NCC(=O)O)NC(=O)[C@H](CCCNC(=N)N)NC(=O)[C@H](CC(=O)O)NC(=O)[C@@H]2CCCN2C(=O)[C@H](C)NC1=O", "note": "[peptide 142] (H-GPCLLLAPDRCPG-OH; disulfide 3-11)", "values": [
      {"measurement": "amount of peptide producing 50% inhibition of binding of ACA-6501 aPL antibody to tetravalent peptide ACA-6501/3B10", "setting": "ACA-6501 aPL antibody", "value": 0.7, "unit": "µg"}
    ]},
    {"compound": "CC(C)C[C@@H]1NC(=O)[C@H](CC(C)C)NC(=O)[C@H](CC(C)C)NC(=O)[C@@H](NC(=O)[C@@H]2CCCN2C(=O)CNC(=O)[C@H](C)N)CSSC[C@@H](C(=O)N2CCC[C@H]2C(=O)NCC(=O)O)NC(=O)[C@H](CCCNC(=N)N)NC(=O)[C@H](CC(=O)O)NC(=O)[C@@H]2CCCN2C(=O)[C@H](C)NC1=O", "note": "[peptide 143] (H-AGPCLLLAPDRCPG-OH; disulfide 4-12)", "values": [
      {"measurement": "amount of peptide producing 50% inhibition of binding of ACA-6501 aPL antibody to tetravalent peptide ACA-6501/3B10", "setting": "ACA-6501 aPL antibody", "value": 0.9, "unit": "µg"}
    ]},
    {"compound": "CILLAHDRC [3E7, ACA-6501 phage clone insert]", "values": [
      {"measurement": "signal in the phage-ELISA", "setting": "ACA-6501 [1]", "value": "significant signals"}
    ]},
    {"compound": "CLVLALDRC [3B6, ACA-6501 phage clone insert]", "values": [
      {"measurement": "signal in the phage-ELISA", "setting": "ACA-6501 [1]", "value": "significant signals"}
    ]},
    {"compound": "CTILTLDRC [2H2, ACA-6501 phage clone insert]", "values": [
      {"measurement": "signal in the phage-ELISA", "setting": "ACA-6501 [1]", "value": "significant signals"}
    ]},
    {"compound": "GILALDYV GG (GILALDYVGG) [6644/CBf]", "values": [
      {"measurement": "Percent Inhibition of AffACA by Peptide Monomers, 6501", "setting": "ACA-6501 [2]", "value": 37, "unit": "%"},
      {"measurement": "Percent Inhibition of AffACA by Peptide Monomers, Ave.", "setting": "ACA antibodies", "value": 39, "unit": "%"},
      {"measurement": "Percent Inhibition of AffACA by Peptide Monomers, 6638", "setting": "ACA-6638", "value": 60, "unit": "%"},
      {"measurement": "Percent Inhibition of AffACA by Peptide Monomers, 6641", "setting": "ACA-6641", "value": 28, "unit": "%"},
      {"measurement": "Percent Inhibition of AffACA by Peptide Monomers, 6644", "setting": "ACA-6644", "value": 18, "unit": "%"},
      {"measurement": "Percent Inhibition of AffACA by Peptide Monomers, 7004", "setting": "ACA-7004", "value": 54, "unit": "%"},
      {"measurement": "Percent Inhibition of AffACA by Peptide Monomers, 7005", "setting": "ACA-7005", "value": 57, "unit": "%"},
      {"measurement": "Percent Inhibition of AffACA by Peptide Monomers, 6701", "setting": "ACA-6701", "value": 22, "unit": "%"},
      {"measurement": "Percent Inhibition of AffACA by Peptide Monomers, 6626", "setting": "ACA-6626", "value": 37, "unit": "%"},
      {"measurement": "Percent Inhibition of AffACA by Peptide Monomers, 6903", "setting": "ACA-6903", "value": 43, "unit": "%"}
    ]}
  ]
}
